# Reference: ChEMBL document CHEMBL4627251, “Identification of potent pyrazole based APELIN receptor (APJ) agonists” (Bioorg Med Chem, 2020)
# Molecular target: T1, Apelin receptor (Homo sapiens, UniProt P35414)
# T1 sequence (P35414 whole entry): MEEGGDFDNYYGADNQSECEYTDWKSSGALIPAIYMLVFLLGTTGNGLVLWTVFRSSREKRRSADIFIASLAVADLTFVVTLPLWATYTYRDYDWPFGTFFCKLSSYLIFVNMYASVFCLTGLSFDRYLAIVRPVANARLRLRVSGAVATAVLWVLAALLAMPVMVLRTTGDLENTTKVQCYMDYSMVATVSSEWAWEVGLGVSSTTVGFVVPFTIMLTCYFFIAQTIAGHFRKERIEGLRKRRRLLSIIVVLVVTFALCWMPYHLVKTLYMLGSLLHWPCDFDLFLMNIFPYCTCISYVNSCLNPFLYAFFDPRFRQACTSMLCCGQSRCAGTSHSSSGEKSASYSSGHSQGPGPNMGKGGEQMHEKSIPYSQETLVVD
# Description: Agonist activity at human APJ receptor stably expressed in CHOK1 cells assessed as induction of beta-arrestin 2 recruitment incubated for 90 mins by PathHunter assay
row,Structure (SMILES),EC50
1,COc1cccc(OC)c1-c1cc(C(=O)N[C@@H](CCc2ccccc2)CC(=O)O)nn1CC(C)C,> 10 µM

# Molecular target: T1, Apelin receptor
# Remark: another data set of the same source
# Description: Agonist activity at human APJ receptor stably expressed in CHO cells assessed as inhibition of forskolin-induced cAMP accumulation measured after 30 mins by Eu-cAMP tracer based TR-FRET assay
row,Structure (SMILES),EC50
1,COc1cccc(OC)c1-c1cc(C(=O)N[C@@H](CCc2ccccc2)CC(=O)O)nn1CC(C)C,> 10 µM

# Molecular target: T2, Type-1 angiotensin II receptor (Homo sapiens, UniProt P30556)
# T2 sequence (P30556 whole entry): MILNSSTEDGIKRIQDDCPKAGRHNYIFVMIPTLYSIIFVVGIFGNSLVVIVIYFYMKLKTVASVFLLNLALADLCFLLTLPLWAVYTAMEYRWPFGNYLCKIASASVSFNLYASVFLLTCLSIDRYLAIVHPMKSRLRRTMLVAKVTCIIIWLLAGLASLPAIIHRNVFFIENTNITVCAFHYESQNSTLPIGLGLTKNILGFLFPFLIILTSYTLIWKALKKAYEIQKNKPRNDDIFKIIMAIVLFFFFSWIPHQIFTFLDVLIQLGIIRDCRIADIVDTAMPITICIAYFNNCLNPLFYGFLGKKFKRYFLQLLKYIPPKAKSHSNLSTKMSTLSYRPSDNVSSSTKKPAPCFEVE
# Assay: Agonist activity at human AGTR1 stably expressed in CHO cells assessed as increase in intracellular calcium mobilization measured at 1 sec intervals for 90 sec by calcium 5 dye based FLIPR assay
# Assay type: functional, cell-based
row,Structure (SMILES),EC50
1,COc1cccc(OC)c1-c1cc(C(=O)N[C@@H](CCC2CCCCC2)CC(=O)O)nn1-c1ccc(F)cc1,> 10 µM
2,COc1cccc(OC)c1-c1cc(C(=O)N[C@@H](CCC2CCCCC2)CC(=O)NC2CCC2)nn1CC(C)C,> 10 µM
3,COc1cccc(OC)c1-c1cc(C(=O)N[C@@H](CCc2ccccc2)CC(=O)NC2CCC2)nn1CC(C)C,> 10 µM
4,COC(=O)CN(C)C(=O)[C@H](CCc1ccccc1)NC(=O)c1cc(-c2c(OC)cccc2OC)n(CC(C)C)n1,> 10 µM
5,CC[C@@H](O)CNC(=O)C[C@H](CCC1CCCCC1)NC(=O)c1cc(-c2c(OC)cccc2OC)n(CC(C)C)n1,> 10 µM
6,CCC(=O)CNC(=O)[C@H](CCc1ccccc1)NC(=O)c1cc(-c2c(OC)cccc2OC)n(CC(C)C)n1,> 10 µM
7,CCCn1nc(C(=O)N[C@@H](CCC2CCCCC2)CC(=O)NC2CCC2)cc1-c1c(OC)cccc1OC,> 10 µM
8,COc1cccc(OC)c1-c1cc(C(=O)N[C@@H](CCC2CCCCC2)CC(=O)NC2CCC2)nn1C1CCCCC1,> 10 µM
9,CCC(=O)CNC(=O)C[C@H](CCC1CCCCC1)NC(=O)c1cc(-c2c(OC)cccc2OC)n(CC(C)C)n1,> 10 µM
10,COc1cccc(OC)c1-c1cc(C(=O)N[C@@H](CCC2CCCCC2)CC(=O)NC2CCC2)nn1C1CCCC1,> 10 µM
11,CCC(O)CNC(=O)C[C@H](CCC1CCCCC1)NC(=O)c1cc(-c2c(OC)cccc2OC)n(CC(C)C)n1 (some centres undefined),> 10 µM

# Molecular target: T1, Apelin receptor
# Remark: another data set of the same source
# Description: Agonist activity at human APJ receptor stably expressed in CHO cells co-expressing Galphaq16 assessed as increase in intracellular calcium mobilization measured at 1 sec intervals for 90 secs by calcium 5 dye based FLIPR assay
row,Structure (SMILES),EC50
1,COc1cccc(OC)c1-c1cc(C(=O)N[C@@H](CCc2ccccc2)CC(=O)O)nn1CC(C)C,> 10 µM
